Measurements: PMC11406361, “Several orphan solute carriers functionally identified as organic cation transporters: Substrates specificity compared with known cation transporters” (The Journal of Biological Chemistry, 2024)
Like-named read-outs stand apart in the source and are kept apart here.

Experiments:
SLC47A2 = SLC47A2 (Homo sapiens, UniProt Q86VL8); assay: Uptake ratio screen, SLC47A2-overexpressing HEK293 over empty vector cells; assay type: cell-based; settings: 2.5 μM, 2 min
Method: (§1) Typically discussed substrates of the proton organic-cation antiporter ([14]) are highlighted in dark green in Figure 1.
(§2) In preparation for transport experiments, 24-well plates were pre-coated with poly-D-lysine (Sigma-Aldrich) and 300,000 cells were plated per well and incubated for 48 h. Firstly, the 24-well plate was placed on a heating plate at 37 °C, and the cells were washed with 37 °C HBSS^+ buffer (Hank’s balanced salt solution supplemented with 10 mM Hepes and adjusted to pH 7.4; Thermo Fisher Scientific). The substance-of-interest, which was diluted in 37 °C HBSS^+ to a desired concentration, was added to the cells for exactly 2 min. […] The uptake was stopped with ice-cold HBSS^+, and the 24-well plate was removed from the heating plate. The cells were washed twice with the cold HBSS^+ before they were lysed for 15 min with 80% (v/v) acetonitrile containing the respective internal standard for mass spectrometry. For variations in seeded cell numbers between the cell lines, several wells were lysed in RIPA buffer and used for total protein quantification using a bicinchoninic assay ([74]) and bovine serum albumin as calibration.
(§3) The intracellular drug concentrations after transport experiments were analyzed by high-performance liquid chromatography coupled to tandem mass spectrometry analysis. The HPLC consisted of a Shimadzu Nexera HPLC System with a SIL-30AC autosampler, a LC-30AD pump, a CTO-20AC column oven, and a CBM-20A controller (Shimadzu). The reverse-phase chromatography of compounds was accomplished with a Brownlee SPP RP-Amide column with 4.6 × 100 mm inner dimensions, a particle size of 2.7 μm, and a preceding Phenomenex C-18 guard column. […] After separation, the detection of substances was performed with an API 4000 tandem mass spectrometer (AB SCIEX, https://sciex.com/support/software-support/software-downloads), followed by quantification of results with the Analyst software (AB SCIEX, version 1.6.2). […]
(§4) Transport-mediated net uptake was determined as fold-increase of transporter-overexpressing cells over empty vector–transfected control cells.

SLC35G3 [1] = molecular target: T1, SLC35G3 (Homo sapiens, UniProt Q8N808); assay: Uptake ratio screen, SLC35G3-overexpressing HEK293 over empty vector cells; assay type: cell-based; parameters: by amplifying the entire gene-of-interest within the HEK293 genome via a long-range PCR
SLC47A1 = molecular target: T2, SLC47A1 (Homo sapiens, UniProt Q96FL8); assay: Uptake ratio screen, SLC47A1-overexpressing HEK293 over empty vector cells; assay type: cell-based; settings: 2.5 μM, 2 min
T2 sequence (Q96FL8 1-570): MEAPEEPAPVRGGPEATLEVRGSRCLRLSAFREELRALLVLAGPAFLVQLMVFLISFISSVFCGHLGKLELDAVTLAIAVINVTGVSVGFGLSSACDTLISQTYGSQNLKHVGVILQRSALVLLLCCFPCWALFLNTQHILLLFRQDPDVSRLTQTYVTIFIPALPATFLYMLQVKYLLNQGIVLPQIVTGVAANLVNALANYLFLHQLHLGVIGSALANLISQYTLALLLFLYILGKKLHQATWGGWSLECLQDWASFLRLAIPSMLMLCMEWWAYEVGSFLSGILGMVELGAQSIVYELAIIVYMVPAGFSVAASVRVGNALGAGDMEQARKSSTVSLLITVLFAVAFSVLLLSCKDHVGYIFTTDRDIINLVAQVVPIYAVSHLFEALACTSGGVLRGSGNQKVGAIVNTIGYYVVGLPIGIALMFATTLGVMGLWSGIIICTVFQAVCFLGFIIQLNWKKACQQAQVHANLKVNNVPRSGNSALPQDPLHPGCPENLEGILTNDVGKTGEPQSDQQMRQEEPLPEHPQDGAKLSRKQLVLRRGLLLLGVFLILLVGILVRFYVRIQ
Method: as §1, §2, §3, §4

SLC38A10 = SLC38A10 (Homo sapiens, UniProt Q9HBR0); settings: SLC38A10, HEK293, net uptake over empty vector cells
SLC35G3 [2] = molecular target: T1, SLC35G3
SLC22A15 = molecular target: T3, SLC22A15 (Homo sapiens, UniProt Q8IZD6); assay: Uptake ratio screen, SLC22A15-overexpressing HEK293 over empty vector cells; assay type: cell-based; settings: 2.5 μM (nicotine 10 μM), 2 min
T3 construct: by amplifying the entire gene-of-interest within the HEK293 genome via a long-range PCR
Method: as §1, §2
(§5) The intracellular drug concentrations after transport experiments were analyzed by high-performance liquid chromatography coupled to tandem mass spectrometry analysis. The HPLC consisted of a Shimadzu Nexera HPLC System with a SIL-30AC autosampler, a LC-30AD pump, a CTO-20AC column oven, and a CBM-20A controller (Shimadzu). The reverse-phase chromatography of compounds was accomplished with a Brownlee SPP RP-Amide column with 4.6 × 100 mm inner dimensions, a particle size of 2.7 μm, and a preceding Phenomenex C-18 guard column. The mobile phase was composed of an organic additive with acetonitrile:methanol 6:1 (v/v) in total concentrations between 3% and 50% (v/v) and 0.1% (v/v) formic acid in the aqueous component of the eluent. During separation, the column oven was held at 40 °C and the mobile phase was maintained at a flow rate of 300 or 400 μl/min. After separation, the detection of substances was performed with an API 4000 tandem mass spectrometer (AB SCIEX, https://sciex.com/support/software-support/software-downloads), followed by quantification of results with the Analyst software (AB SCIEX, version 1.6.2). The composition of chromatographic conditions, as well as detailed mass spectrometric detection parameters, are listed in Table S5.
as §4

SLC35G3 [3] = molecular target: T1, SLC35G3; settings: ratio of Vmax over KM
SLC35F5 = molecular target: T4, SLC35F5 (Homo sapiens, UniProt Q8WV83); assay: Uptake ratio screen, SLC35F5-overexpressing HEK293 over empty vector cells; assay type: cell-based; parameters: by amplifying the entire gene-of-interest within the HEK293 genome via a long-range PCR; settings: 2.5 μM, 2 min
T4 sequence (Q8WV83 1-523): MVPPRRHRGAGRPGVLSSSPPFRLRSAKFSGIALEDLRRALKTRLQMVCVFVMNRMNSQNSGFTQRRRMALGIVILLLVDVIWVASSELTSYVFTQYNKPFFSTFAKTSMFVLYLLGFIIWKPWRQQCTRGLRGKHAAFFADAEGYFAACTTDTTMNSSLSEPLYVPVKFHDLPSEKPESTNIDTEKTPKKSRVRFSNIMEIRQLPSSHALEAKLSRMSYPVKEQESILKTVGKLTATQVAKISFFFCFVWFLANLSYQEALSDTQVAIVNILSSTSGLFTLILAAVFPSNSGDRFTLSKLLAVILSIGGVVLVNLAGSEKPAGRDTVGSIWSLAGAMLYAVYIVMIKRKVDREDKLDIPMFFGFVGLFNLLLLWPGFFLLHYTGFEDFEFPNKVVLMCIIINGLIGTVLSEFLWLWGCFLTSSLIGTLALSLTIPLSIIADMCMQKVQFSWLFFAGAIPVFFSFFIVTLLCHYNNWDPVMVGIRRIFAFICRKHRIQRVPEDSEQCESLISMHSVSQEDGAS
Method: as §1, §2, §5, §4

SLC19A3 = molecular target: T5, SLC19A3 (Homo sapiens, UniProt Q9BZV2); assay: Uptake ratio screen, SLC19A3-overexpressing HEK293 over empty vector cells; assay type: cell-based; settings: 2.5 μM, 2 min
T5 construct: expressed in transfected cells
Method: as §1
In preparation for transport experiments, 24-well plates were pre-coated with poly-D-lysine (Sigma-Aldrich) and 300,000 cells were plated per well and incubated for 48 h. Firstly, the 24-well plate was placed on a heating plate at 37 °C, and the cells were washed with 37 °C HBSS^+ buffer (Hank’s balanced salt solution supplemented with 10 mM Hepes and adjusted to pH 7.4; Thermo Fisher Scientific). The substance-of-interest, which was diluted in 37 °C HBSS^+ to a desired concentration, was added to the cells for exactly 2 min. […] For variations in seeded cell numbers between the cell lines, several wells were lysed in RIPA buffer and used for total protein quantification using a bicinchoninic assay ([74]) and bovine serum albumin as calibration.
The intracellular drug concentrations after transport experiments were analyzed by high-performance liquid chromatography coupled to tandem mass spectrometry analysis. […] After separation, the detection of substances was performed with an API 4000 tandem mass spectrometer (AB SCIEX, https://sciex.com/support/software-support/software-downloads), followed by quantification of results with the Analyst software (AB SCIEX, version 1.6.2). […]

[4] = 2.5 μM substrate, 2 min, HEK293

T3 sequence (Q8IZD6 whole entry): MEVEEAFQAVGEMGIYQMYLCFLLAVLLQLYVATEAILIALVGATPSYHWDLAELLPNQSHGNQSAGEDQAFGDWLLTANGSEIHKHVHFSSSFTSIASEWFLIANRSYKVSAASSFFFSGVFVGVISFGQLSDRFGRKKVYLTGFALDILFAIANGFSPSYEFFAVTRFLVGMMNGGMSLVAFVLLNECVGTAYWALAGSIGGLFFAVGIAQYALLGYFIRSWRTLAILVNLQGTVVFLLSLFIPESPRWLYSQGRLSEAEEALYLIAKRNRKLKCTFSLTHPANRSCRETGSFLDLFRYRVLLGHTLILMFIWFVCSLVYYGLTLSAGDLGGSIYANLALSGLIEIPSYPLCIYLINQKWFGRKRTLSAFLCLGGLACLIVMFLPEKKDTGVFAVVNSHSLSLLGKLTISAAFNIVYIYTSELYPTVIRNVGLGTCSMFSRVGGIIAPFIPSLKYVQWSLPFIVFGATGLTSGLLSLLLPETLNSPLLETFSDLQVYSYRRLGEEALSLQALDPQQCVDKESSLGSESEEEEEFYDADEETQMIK
T1 sequence (Q8N808 whole entry): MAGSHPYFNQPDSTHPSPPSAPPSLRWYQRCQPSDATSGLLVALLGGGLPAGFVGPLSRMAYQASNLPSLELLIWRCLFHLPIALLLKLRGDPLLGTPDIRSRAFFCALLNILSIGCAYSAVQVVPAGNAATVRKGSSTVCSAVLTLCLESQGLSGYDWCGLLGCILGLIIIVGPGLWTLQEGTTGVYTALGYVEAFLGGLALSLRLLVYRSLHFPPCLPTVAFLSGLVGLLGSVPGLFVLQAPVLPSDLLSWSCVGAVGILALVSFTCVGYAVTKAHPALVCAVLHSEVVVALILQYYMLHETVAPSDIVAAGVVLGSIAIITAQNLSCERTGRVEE
Chain of SLC47A2 (Q86VL8 1-566 isoform Q86VL8-3): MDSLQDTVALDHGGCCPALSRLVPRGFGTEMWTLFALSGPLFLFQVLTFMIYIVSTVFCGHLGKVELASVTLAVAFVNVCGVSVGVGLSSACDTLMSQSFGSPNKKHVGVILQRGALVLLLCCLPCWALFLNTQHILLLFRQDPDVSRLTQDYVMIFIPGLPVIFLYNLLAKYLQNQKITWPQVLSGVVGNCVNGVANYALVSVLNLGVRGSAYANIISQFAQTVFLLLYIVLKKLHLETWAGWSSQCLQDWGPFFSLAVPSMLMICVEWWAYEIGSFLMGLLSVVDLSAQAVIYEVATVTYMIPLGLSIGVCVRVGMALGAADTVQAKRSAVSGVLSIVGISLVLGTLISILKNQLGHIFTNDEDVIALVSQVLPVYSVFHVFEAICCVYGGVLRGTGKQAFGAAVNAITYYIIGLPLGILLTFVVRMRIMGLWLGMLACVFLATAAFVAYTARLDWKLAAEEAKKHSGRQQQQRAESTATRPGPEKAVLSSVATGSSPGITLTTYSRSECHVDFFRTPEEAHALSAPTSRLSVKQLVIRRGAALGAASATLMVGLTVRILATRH
T5 sequence (Q9BZV2 whole entry): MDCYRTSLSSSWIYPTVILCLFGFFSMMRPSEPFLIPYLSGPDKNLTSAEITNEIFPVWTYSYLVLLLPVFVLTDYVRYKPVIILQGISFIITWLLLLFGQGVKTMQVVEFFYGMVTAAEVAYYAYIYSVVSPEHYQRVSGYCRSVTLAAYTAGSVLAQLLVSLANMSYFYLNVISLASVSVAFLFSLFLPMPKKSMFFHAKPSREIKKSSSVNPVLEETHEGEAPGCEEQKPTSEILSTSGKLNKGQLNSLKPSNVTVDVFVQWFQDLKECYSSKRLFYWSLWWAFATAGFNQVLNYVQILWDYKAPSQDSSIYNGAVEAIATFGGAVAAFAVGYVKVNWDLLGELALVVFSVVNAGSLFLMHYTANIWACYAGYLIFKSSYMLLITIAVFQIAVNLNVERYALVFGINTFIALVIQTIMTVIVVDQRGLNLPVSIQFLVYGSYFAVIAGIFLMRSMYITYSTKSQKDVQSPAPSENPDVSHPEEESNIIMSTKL
Chain of SLC38A10 (Q9HBR0 whole entry): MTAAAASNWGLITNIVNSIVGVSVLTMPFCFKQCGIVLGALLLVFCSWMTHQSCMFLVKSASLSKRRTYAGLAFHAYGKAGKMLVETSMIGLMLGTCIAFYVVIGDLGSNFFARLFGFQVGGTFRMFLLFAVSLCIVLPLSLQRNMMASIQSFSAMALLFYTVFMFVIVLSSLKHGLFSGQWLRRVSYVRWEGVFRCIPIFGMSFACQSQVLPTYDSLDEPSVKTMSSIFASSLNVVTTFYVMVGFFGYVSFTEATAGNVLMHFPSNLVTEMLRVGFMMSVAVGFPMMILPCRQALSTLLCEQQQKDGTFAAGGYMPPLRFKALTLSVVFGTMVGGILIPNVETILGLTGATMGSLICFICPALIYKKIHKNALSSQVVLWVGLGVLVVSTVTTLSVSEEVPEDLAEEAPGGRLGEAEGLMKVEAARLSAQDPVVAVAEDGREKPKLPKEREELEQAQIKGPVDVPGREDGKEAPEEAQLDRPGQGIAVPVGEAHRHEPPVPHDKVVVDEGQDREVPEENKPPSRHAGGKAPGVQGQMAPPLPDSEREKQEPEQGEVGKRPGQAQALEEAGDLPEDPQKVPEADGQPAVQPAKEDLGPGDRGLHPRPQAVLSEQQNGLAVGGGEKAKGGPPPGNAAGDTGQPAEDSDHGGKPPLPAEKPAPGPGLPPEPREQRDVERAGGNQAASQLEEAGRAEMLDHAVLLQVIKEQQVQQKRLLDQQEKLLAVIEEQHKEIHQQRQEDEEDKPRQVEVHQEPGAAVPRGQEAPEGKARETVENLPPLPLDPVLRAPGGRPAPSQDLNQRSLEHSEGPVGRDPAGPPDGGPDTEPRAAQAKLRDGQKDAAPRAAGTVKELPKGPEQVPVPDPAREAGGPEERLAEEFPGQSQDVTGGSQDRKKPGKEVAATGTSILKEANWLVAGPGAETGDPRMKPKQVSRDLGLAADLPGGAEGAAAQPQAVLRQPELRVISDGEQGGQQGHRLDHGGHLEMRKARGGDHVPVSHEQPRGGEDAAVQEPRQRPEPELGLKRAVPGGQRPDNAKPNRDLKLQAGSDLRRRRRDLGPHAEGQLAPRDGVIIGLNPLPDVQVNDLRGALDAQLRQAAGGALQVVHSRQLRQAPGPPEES

| SMILES | Uptake data for SLC35G3, mean value (fold-increase over empty vector control) (SLC35G3 [1]; [4]) | Uptake by SLC22A15 (in words) (SLC22A15) | other results |
| --- | --- | --- | --- |
| Nc1nc2c(ncn2COCCO)c(=O)[nH]1 [Acyclovir] | 1.21 |  | Uptake by SLC47A2 (MATE2K) (in words) (SLC47A2): only transported by the MATEs; Uptake by SLC47A1 (MATE1) (in words) (SLC47A1): only transported by the MATEs |
| CC(N)Cc1ccccc1 (stereo not shown) [Amphetamine] | 1.28 |  | Vmax (±SEM) (SLC38A10): 97.4 (±11.1) pmol × mg protein^-1 × min^-1 |
| CCCNC(C)C(=O)Nc1c(C)csc1C(=O)OC (stereo not shown) [Articaine] | 2.91 |  | Clint (±SEM) (SLC35G3 [2]): 2.04 (±2.24) μl × mg protein^-1 × min^-1 |
| C[N+](C)(C)CC(O)CC(=O)[O-] (stereo not shown) [Carnitine-d9] | 1.05 | did not measure significant uptake |  |
| C[N+](C)(C)[C@@H](Cc1c[nH]c(=S)[nH]1)C(=O)[O-] [Ergothionine] | 1.67 | did not measure significant uptake |  |
| CNC(C)Cc1ccc2c(c1)OCO2 (stereo not shown) [MDMA, 3,4-methylenedioxymethamphetamine] |  | significantly increased the uptake | Clint (±SEM) (SLC35G3 [3]): 4.31 (±2.26) μl × mg protein^-1 × min^-1; Uptake data for SLC35G3, mean value (fold-increase over empty vector control) (SLC35G3 [1]): 1.58; Uptake by SLC35F5 (in words) (SLC35F5): highest uptake rates |
| C[n+]1ccc(-c2ccccc2)cc1 [MPP^+, 1-methyl-4-phenylpyridinium] |  |  | Uptake by SLC19A3 (in words) (SLC19A3): moderate |
